According to patent US11091486B2, “Process for the preparation of pyrazolo[1,5-a]pyrimidines and salts thereof” (Array BioPharma Inc., priority 2016, dated 2021):

Legend:
[1] = Thermodynamic aqueous solubility of a crystalline solid (Example 33); assay type: physicochemical; details: aqueous phosphate buffer, thermodynamic from solid, pH 6.5 buffer, 24 hours at room temperature
Method: General method to measure the thermodynamic aqueous solubility of a crystalline, organic solid.
To make a 0.03 M (30 mM) Phosphate Buffer (25° C.) at pH 7.4, the above recipe was adjusted as follows: 6.72 mL of 1 M potassium phosphate (monobasic) were mixed with 23.28 mL of 1 M potassium phosphate (dibasic) and diluted to one liter with water. The pH was adjusted with HCl or NaOH. Alternatively, 0.9144 g (6.72×10^−3 mol) of potassium phosphate monobasic were mixed with 4.0908 g (23.28×10^−3 mol) of potassium phosphate dibasic and diluted to 1 L with water to get a 30 mM solution of Phosphate Buffer (25° C.).
2. Aqueous phosphate buffer, 30 mM, adjusted to pH 6.5
1. ˜0.5 mg of compound were dissolved in 2.5% DMSO/MeOH (or other organic) to a final concentration of 250 μg/mL stock
• 1. ≥0.5 mg of compound were accurately weighed into a 4-mL vial for each pH to be tested. • 2. The appropriate amount of desired buffer was added to the appropriate vials to get a resulting concentration of 1.02 mg/mL. • 3. Vials were capped and shaken at 350 rpm for 24 hours at room temperature. • 4. ˜450 μL of sample solutions were pipetted from 4-mL vials into 96 DWP. • 5. The plate was centrifuged at 3500 rpm for 10 minutes at 20° C. and 250 μL of supernatant were transferred to catch plate. • 6. […]
4. The model was used to quantify the amount of compound in the aqueous solutions. […]

[2] = In vitro metabolic stability in human liver microsomes (Example 34); assay type: in vitro ADME; details: 1 μM, predicted hepatic extraction ratio
Method: In vitro metabolic stabilities were studied at a concentration of 1 μM in the presence of liver microsomes and isolated hepatocytes.
A 100 mM potassium phosphate assay buffer solution (KPB) was prepared as follows. Both KH2PO4 and K2HPO4 were dissolved separately in reagent grade water resulting in final concentrations 100 mM. A 75:25 mixture v/v of K2HPO4:KH2PO4 was prepared and the pH of the solution was adjusted to 7.4 using diluted HCl or diluted NaOH solutions. A stock solution of test compound was prepared at 10 mM (active compound) in DMSO. The stock solution was diluted immediately before use to 2.5 μM using the KPB solution to create the working standard. All test compounds were completely soluble in DMSO by visual inspection at room temperature. […]
Data were acquired and peak areas were calculated for test compounds and the internal standard using Analyst 1.6.1 software (Sciex). […]
All calculations were performed using BioAssay Enterprise. The mean peak area ratios were calculated by averaging the peak area ratios (n=2) of test compound and the internal standard for each sample. Percent remaining was calculated by determining the ratio of the peak area ratio at each time point to the peak area ratio of the time-zero samples. The rate of loss of test compound (km) was determined by linear regression of—1n(f(t)) versus time. […] The t½ was determined dividing 1n(2) by km. […]

hERG = biological target: T1, hERG (Homo sapiens, UniProt Q12809); assay: hERG ChanTest Fast Patch assay; assay type: cell-based
T1 construct: Charles River Laboratories International, Inc. (ChanTest assay service)
Method: The MDR1 efflux protocol is disclosed in Example 35 hereinbelow. The hERG IC50 values were measured using the ChanTest Fast Patch assay, available from Charles River Laboratories International, Inc. (http://www.criver.com/products-services/drug-discovery/cap abilities/ion-channel/selectivity-profiling).

T1 sequence (Q12809 whole entry): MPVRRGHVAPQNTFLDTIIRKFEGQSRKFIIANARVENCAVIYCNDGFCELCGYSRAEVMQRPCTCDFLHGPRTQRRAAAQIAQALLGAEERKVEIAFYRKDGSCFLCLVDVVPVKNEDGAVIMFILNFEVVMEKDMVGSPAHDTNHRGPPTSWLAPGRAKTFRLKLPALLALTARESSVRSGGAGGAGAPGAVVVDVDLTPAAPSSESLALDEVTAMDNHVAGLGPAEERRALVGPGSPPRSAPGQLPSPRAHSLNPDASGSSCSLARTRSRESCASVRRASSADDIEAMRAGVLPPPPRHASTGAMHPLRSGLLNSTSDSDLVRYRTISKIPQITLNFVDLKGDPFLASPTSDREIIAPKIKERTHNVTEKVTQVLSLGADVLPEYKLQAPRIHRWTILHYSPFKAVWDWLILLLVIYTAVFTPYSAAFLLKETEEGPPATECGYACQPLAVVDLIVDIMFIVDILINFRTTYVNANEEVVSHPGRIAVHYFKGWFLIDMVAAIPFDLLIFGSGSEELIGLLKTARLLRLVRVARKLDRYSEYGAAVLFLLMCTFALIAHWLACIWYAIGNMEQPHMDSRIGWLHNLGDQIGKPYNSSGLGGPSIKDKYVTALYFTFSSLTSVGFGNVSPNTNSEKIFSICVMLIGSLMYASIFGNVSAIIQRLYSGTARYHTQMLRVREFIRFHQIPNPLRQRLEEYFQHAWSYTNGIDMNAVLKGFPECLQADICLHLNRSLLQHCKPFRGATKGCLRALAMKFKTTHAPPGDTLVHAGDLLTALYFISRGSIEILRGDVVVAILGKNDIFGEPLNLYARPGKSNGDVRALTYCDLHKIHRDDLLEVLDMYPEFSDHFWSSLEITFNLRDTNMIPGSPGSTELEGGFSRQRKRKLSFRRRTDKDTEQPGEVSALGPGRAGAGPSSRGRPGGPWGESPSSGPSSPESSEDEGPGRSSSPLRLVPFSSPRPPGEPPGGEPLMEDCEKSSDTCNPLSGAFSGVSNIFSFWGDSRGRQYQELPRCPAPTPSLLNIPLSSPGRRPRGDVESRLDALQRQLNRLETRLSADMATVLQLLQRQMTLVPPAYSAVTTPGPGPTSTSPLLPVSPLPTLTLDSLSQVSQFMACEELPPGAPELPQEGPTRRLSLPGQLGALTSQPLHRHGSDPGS

Compound	solubility at 24 h [1]	Human Microsome Clearance (% ER) [2]	IC50 (hERG)
C[C@@H]1CCc2ncc(F)cc2[C@H]2CCCN2c2ccn3ncc(c3n2)C(=O)N1 [Formula I]	111 µg/mL	79 % ER	27 µM
C[C@H]1CCc2ncc(F)cc2[C@H]2CCCN2c2ccn3ncc(c3n2)C(=O)N1 [formula I′]	43 µg/mL	92 % ER	9 µM
